Results published in ChEMBL document CHEMBL3885861, “Open TG-GATES”.

Organism: Rattus norvegicus
Assay: Open TG-GATES - Regimen: Single
Format: toxicity, organism-based, Sprague-Dawley
Parameters: regimen Single, gender Male, age 6 weeks
Conditions: in vivo, po, route gavage; for Bas / Eos / Fbg / Ht / MCHC / Mono / RBC / Ret: tissue Blood; for KIDNEY_L / KIDNEY_R / KIDNEY_TOTAL: tissue Kidney; for LIVER: tissue Liver; for ALT / AST / BUN / CRE / DBIL / GLC / IP / K / PL / RALB / TBIL / TC / TG / TP / gamma-GTP / ALP: tissue Plasma
[1] = 0 mg/kg, 3 h, dose level Control
[2] = 0 mg/kg, 6 h, dose level Control
[3] = 0 mg/kg, 9 h, dose level Control
[4] = 0 mg/kg, 24 h, dose level Control

With `CC(C)OC(=O)C(C)(C)Oc1ccc(C(=O)c2ccc(Cl)cc2)cc1` [FENOFIBRATE] the Bas [1] was 0.4%, the Eos [1] was 0.8% and the Fbg [1] was 289.4 mg/dL. For the same molecule, the Ht [1] was 39.8%, the MCHC [1] was 32.5% and the Mono [1] was 4%. The RBC [1] was 616.8 x10_4/ul, the Ret [1] was 9% and the KIDNEY_L [1] was 0.8 g. It also gave a KIDNEY_R [1] of 0.8 g, a KIDNEY_TOTAL [1] of 1.5 g and an LIVER [1] of 7.9 g. For the same molecule, the ALT [1] was 48.4 IU/L, the AST [1] was 83 IU/L and the BUN [1] was 9 mg/dL. It also gave a CRE [1] of 0.2 mg/dL, a DBIL [1] of 0.006 mg/dL and a GLC [1] of 182.6 mg/dL. For the same molecule, the IP [1] was 9.5 mg/dL, the K [1] was 4.3 meq/L and the PL [1] was 140.8 mg/dL. For the same molecule, the RALB [1] was 2.4 g/dL, the TBIL [1] was 0.048 mg/dL and the TC [1] was 77 mg/dL. It also gave a TG [1] of 41.2 mg/dL, a TP [1] of 5.2 g/dL and a gamma-GTP [1] of 1.4 IU/L. For the same molecule, the Bas [2] was 0.4%, the Eos [2] was 0.8% and the Fbg [2] was 268.2 mg/dL. For the same molecule, the Ht [2] was 40.1%, the MCHC [2] was 32.4% and the Mono [2] was 3%. For the same molecule, the RBC [2] was 599.2 x10_4/ul, the Ret [2] was 9.6% and the KIDNEY_L [2] was 0.8 g. For the same molecule, the KIDNEY_R [2] was 0.8 g, the KIDNEY_TOTAL [2] was 1.5 g and the LIVER [2] was 7.2 g. It also gave an ALP [2] of 1534.8 IU/L, an ALT [2] of 41.8 IU/L and an AST [2] of 81.8 IU/L. The BUN [2] was 9.6 mg/dL, the CRE [2] was 0.2 mg/dL and the DBIL [2] was 0.008 mg/dL. For the same molecule, the GLC [2] was 173.8 mg/dL, the IP [2] was 9.7 mg/dL and the K [2] was 4.1 meq/L. For the same molecule, the PL [2] was 142.6 mg/dL, the RALB [2] was 2.5 g/dL and the TBIL [2] was 0.056 mg/dL. It also gave a TC [2] of 82.4 mg/dL, a TG [2] of 44.6 mg/dL and a TP [2] of 5.4 g/dL. The gamma-GTP [2] was 1 IU/L, the Bas [3] was 0% and the Eos [3] was 1%. It also gave a Fbg [3] of 292.6 mg/dL, a Ht [3] of 39.3% and an MCHC [3] of 32.3%. For the same molecule, the Mono [3] was 2.4%, the RBC [3] was 584.2 x10_4/ul and the Ret [3] was 9.6%. The KIDNEY_L [3] was 0.8 g, the KIDNEY_R [3] was 0.8 g and the KIDNEY_TOTAL [3] was 1.5 g. For the same molecule, the LIVER [3] was 6.9 g, the ALP [3] was 1454.2 IU/L and the ALT [3] was 38.6 IU/L. The AST [3] was 75.8 IU/L, the BUN [3] was 8.4 mg/dL and the CRE [3] was 0.2 mg/dL. The DBIL [3] was 0.008 mg/dL, the GLC [3] was 178.8 mg/dL and the IP [3] was 9.5 mg/dL. For the same molecule, the K [3] was 4 meq/L, the PL [3] was 145.8 mg/dL and the RALB [3] was 2.4 g/dL. The TBIL [3] was 0.058 mg/dL, the TC [3] was 83.2 mg/dL and the TG [3] was 38.6 mg/dL. For the same molecule, the TP [3] was 5.2 g/dL, the gamma-GTP [3] was 1 IU/L and the Bas [4] was 0.2%. The Eos [4] was 1%, the Fbg [4] was 281.4 mg/dL and the Ht [4] was 39.1%. For the same molecule, the MCHC [4] was 32.7%, the Mono [4] was 3% and the RBC [4] was 590.8 x10_4/ul. The Ret [4] was 9.3%, the KIDNEY_L [4] was 0.9 g and the KIDNEY_R [4] was 0.8 g. It also gave a KIDNEY_TOTAL [4] of 1.7 g, an LIVER [4] of 9.1 g and an ALT [4] of 50.4 IU/L. The AST [4] was 77.6 IU/L, the CRE [4] was 0.2 mg/dL and the DBIL [4] was 0.012 mg/dL. It also gave a GLC [4] of 186.2 mg/dL, an IP [4] of 8.5 mg/dL and a K [4] of 4.4 meq/L. The PL [4] was 153.6 mg/dL, the RALB [4] was 2.6 g/dL and the TBIL [4] was 0.04 mg/dL. The TC [4] was 82.8 mg/dL, the TG [4] was 65 mg/dL and the TP [4] was 5.6 g/dL. For the same molecule, the gamma-GTP [4] was 0.8 IU/L, the Bas (10 mg/kg, 3 h, dose level Low) was 0.2% and the Eos (10 mg/kg, 3 h, dose level Low) was 0.6%.
